Tests used:
[1] = system: iPSC-microglia; experiment: Cell viability in iPSC-microglia; type: cell-based, human
Experimental: FIGS. 10A-10D show anti-inflammatory properties of A11 after IFNγ treatment on human induced pluripotent stem cell derived microglia. Cell viability is shown in FIG. 10A as measured with CellTiter Glo (Promega) in untreated (vehicle), A11 (2.5 μM) treated, IFNγ (25 ng/mL) treated and A11 +IFNγ treated cells. The morphology (round represent un-activated and elongated, filamentous represent activated by IFNγ) of these same conditions is shown in FIGS. 10B and quantified in FIG. 10C.
Human induced pluripotent stem cell derived microglia (iPSC-microglia) were activated with IFN-gamma (25 ng/mL, 3 days) and co-treated with A11 (2.5 μM, 2 days).
A concentration response curve was performed for cell viability and myelin uptake (FIG. 12A) in iPSC-microglia. Myelin uptake was measured by uptake of pHrodo-GFP-labelled wild-type mouse myelin particles (FIG. 12B). […] The IC50s obtained for these assays was in the low nM range, matching the data obtained in BV2 cells.

[2] = system: multiple cell lines; experiment: Time course of A11 efficacy after application; type: cell-based; conditions: A11 obtained from several vendors
Source text: The gene modulation was reproduced in unmodified BV2 cells and primary mouse microglia. FIG. 14B: Concentration-response curve of A11 from multiple vendors, measured as percent reduction of luminescence. Non-linear fit with Hill's equation with baseline fixed to 0. FIG. 14C: Time course for reduction of mRNA levels of luciferase and il1β as well as luminescence emission in BV2 PU.1-Luciferase cells. FIGS. 14D-14E: Time and concentration-response curve (of pHrodo-labelled particles) for uptake of pHrodo-labelled Zymosan A (FIG. 14D) and mouse myelin in (FIG. 14E) in BV2 cells (left panels, respectively in each FIGS. 14D-14E), and iPS-microglia (right panels, respectively in each FIGS. 14D-14E). FIGS.: 14F-14G: Time and concentration-response curves of A11 (FIG. 14F) and DB2313 (FIG. 14G) of Zymosan A uptake in BV2 cells. Left, middle, and right panels show 1, 2 and 3 hours after compound application, respectively. ANOVA followed by Dunnett's post hoc test versus vehicle, black bars indicate P≤0.05.

[3] = system: iPS and ES-microglia; experiment: Intracellular neutral lipid accumulation (BODIPY staining) in microglia; type: cell-based, human
Experimental: Top row: Effect of a 2-day treatment with DPBS (10 μL/mL), IFNγ (25 ng/mL), TNFα (25 ng/mL), TGFβ (25 ng/mL), IL1β (25 ng/mL), LPS (25 ng/mL), ATP (100 nM), CD200 (100 ng/mL), IFNα (25 ng/mL), IL12 (5 ng/mL), CX3CL1 (100 ng/mL), CCL5 (100 ng/mL), PMA (10 ng/mL), IFNβ (10 ng/mL), IL33 (10 ng/mL), and IL4 (100 ng/mL). n=52 for DPBS, n=9 for all other inflammatory molecules, except IL33 where n=3. Bottom row: effect after co-application with A11 (20 nM). Scale bar 10 μm. […] Student's unpaired, two sided t-test, ****P≤0.0001, ***P≤0.001, **P≤0.01, *P≤0.05. […] Top row: An increase in number of cells per well with ≥2 BODIPY-positive structures was observed after a 2-day treatment with IFNγ (25 ng/mL), TNFα (25 ng/mL) and IL33 (10 ng/mL) as compared to DPBS treatment. […] Student's unpaired, two-sided t-test, ***P≤0.001, **P≤0.01, *P≤0.05. […] A 2-day treatment with IFNγ (25 ng/mL) caused increase in ATP levels that was reversed by A11 (20 nM) treatment in iPS (left panel) and ES-microglia (right panel). Student's unpaired, twosided t-test, **P≤0.01. […]
FIGS. 17A-17H show results from comparing the effects of multiple inflammatory molecules in iPS-microglia. […] Quantification based on total Vybrant DiI-positive surface area divided by number of Hoechst positive cells per field of view. […]

[4] = concentration response curve, iPSC-microglia, after 48 h

O=S(=O)(NCc1ccncc1)c1ccc(C2CCCCC2)cc1 [Compound A11]
cell viability (CellTiter Glo) ([1]; IFN-gamma 25 ng/mL 3 days, co-treated with A11 2.5 μM 2 days): No significant change | IC50 of cell viability [1, 4]: low nM range | reduction in cell viability [1, 4]: weak reduction | time after application at which efficacy starts [2]: 3 h | number of cells containing ≥2 BODIPY-positive structures ([3]; A11 alone <20 nM, iPS and ES-microglia): no effect | number of cells with ≥2 BODIPY-positive structures, increase by inflammatory molecules ([3]; iPS-microglia, 2-day treatment with IFNγ, TNFα or IL33 plus A11): reversed this increase
